# From US20250289806A1, “COMPOUNDS FOR PROLIFERATIVE DISORDERS” (UNIVERSITY OF MIAMI, priority 2022, published 2025)
# Legend:
# [1] = tested on: HEL92.1.7; assay: cells; conditions: Homo sapiens, HEL 92.1.7, 72 h
# [2] = tested on: Kasumi-1; assay: Cell viability assay, Kasumi-1; format: cell-based; conditions: Homo sapiens; Kasumi-1, acute myeloid leukemia; cell viability, 72 hours
# [3] = tested on: U266B1; assay: Cell viability assay, U266B1; format: cell-based; conditions: U266B1, multiple myeloma; cell viability, 72 hours
# [4] = tested on: K562 SF3B1 K666N; assay: cells; conditions: Homo sapiens, K562, 72 h
# [5] = tested on: MOLT4; assay: Cell viability assay, MOLT4; format: cell-based; conditions: Homo sapiens, MOLT-4; MOLT4, acute lymphoblastic leukemia; cell viability, 72 hours
# [6] = tested on: SET-2; assay: Cell viability assay, SET-2; format: cell-based; conditions: Homo sapiens; SET-2, acute myeloid leukemia; cell viability, 72 hours
# [7] = tested on: NALM-6 SF3B1 K666N; assay: cells; conditions: Homo sapiens, NALM-6, 72 h
# [8] = tested on: MEC-1; assay: Cell viability assay, MEC-1; format: cell-based; conditions: Homo sapiens, MEC1; MEC-1, lymphoma; cell viability, 72 hours
# [9] = biological target: T1, STK17A (Homo sapiens, UniProt Q9UEE5); assay: Enzymatic activity assay (Reaction Biology Corporation), STK17A; format: biochemical; conditions: enzymatic activity assay; read-out: IC50 STK17A
# T1 construct: purchased Reaction Biology Corporation
# T1 sequence (Q9UEE5 1-414): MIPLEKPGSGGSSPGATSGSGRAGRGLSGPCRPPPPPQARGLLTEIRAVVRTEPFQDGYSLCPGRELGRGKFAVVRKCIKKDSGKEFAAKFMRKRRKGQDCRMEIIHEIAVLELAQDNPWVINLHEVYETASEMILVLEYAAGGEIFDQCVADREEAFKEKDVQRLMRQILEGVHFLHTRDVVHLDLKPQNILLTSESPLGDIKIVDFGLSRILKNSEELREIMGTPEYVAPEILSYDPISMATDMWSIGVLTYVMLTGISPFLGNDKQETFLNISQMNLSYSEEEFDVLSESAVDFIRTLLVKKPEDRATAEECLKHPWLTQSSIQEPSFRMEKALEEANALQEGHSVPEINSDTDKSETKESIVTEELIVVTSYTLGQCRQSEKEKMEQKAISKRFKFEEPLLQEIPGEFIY
# Experimental: (§1) All enzymatic assays and panel profiling studies are activity assays, which were carried out by Reaction Biology Corporation according to the company's protocols.
# [10] = tested on: LP1; assay: Cell viability assay, LP1; format: cell-based; conditions: Homo sapiens, LP-1; LP1, multiple myeloma; cell viability, 72 hours
# [11] = tested on: HEL; assay: Cell viability assay, HEL; format: cell-based; conditions: Homo sapiens, acute myeloid leukemia, cell viability, 72 hours
# [12] = tested on: MOLM-13; assay: Cell viability assay, MOLM-13; format: cell-based; conditions: Homo sapiens; MOLM-13, acute myeloid leukemia; cell viability, 72 hours
# [13] = tested on: RS4; 11; assay: Cell viability assay, RS4; 11; format: cell-based; conditions: Homo sapiens; RS4; 11, acute lymphoblastic leukemia; cell viability, 72 hours
# [14] = tested on: KMS12BM; assay: Cell viability assay, KMS12BM; format: cell-based; conditions: Homo sapiens, KMS-12-BM, multiple myeloma, cell viability, 72 hours
# [15] = tested on: OPM2; assay: Cell viability assay, OPM2; format: cell-based; conditions: Homo sapiens, OPM-2; OPM2, multiple myeloma; cell viability, 72 hours
# [16] = tested on: RPMI8226; assay: Cell viability assay, RPMI8226; format: cell-based; conditions: Homo sapiens, RPMI-8226; RPMI8226, multiple myeloma; cell viability, 72 hours
# [17] = tested on: SKNO-1; assay: Cell viability assay, SKNO-1; format: cell-based; conditions: SKNO-1, acute myeloid leukemia; cell viability, 72 hours
# [18] = biological target: T2, MYLK4 (Homo sapiens, UniProt Q86YV6); assay: Enzymatic activity assay (Reaction Biology Corporation), MYLK4; format: biochemical
# T2 construct: purchased Reaction Biology Corporation
# T2 sequence (Q86YV6 1-388): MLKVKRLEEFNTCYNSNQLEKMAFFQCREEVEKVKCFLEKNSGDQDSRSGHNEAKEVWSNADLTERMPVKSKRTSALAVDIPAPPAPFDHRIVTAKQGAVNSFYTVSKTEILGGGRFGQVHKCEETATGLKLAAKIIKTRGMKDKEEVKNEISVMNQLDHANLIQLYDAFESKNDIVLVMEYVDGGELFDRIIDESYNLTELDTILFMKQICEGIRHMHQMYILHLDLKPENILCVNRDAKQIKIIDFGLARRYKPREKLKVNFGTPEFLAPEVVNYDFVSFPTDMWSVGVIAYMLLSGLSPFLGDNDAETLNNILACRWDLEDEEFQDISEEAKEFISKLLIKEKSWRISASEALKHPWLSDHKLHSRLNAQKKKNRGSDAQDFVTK
# Experimental: as §1
# [19] = tested on: MM-M1; assay: Cell viability assay, MM-M1; format: cell-based; conditions: MM-M1, multiple myeloma; cell viability, 72 hours
# [20] = tested on: MV-4-11; assay: Cell viability assay, MV-4-11; format: cell-based; conditions: Homo sapiens, MV4-11; MV-4-11, acute myeloid leukemia; cell viability, 72 hours
# [21] = tested on: THP-1; assay: Cell viability assay, THP-1; format: cell-based; conditions: Homo sapiens; THP-1, acute myeloid leukemia; cell viability, 72 hours
# [22] = tested on: TF1; assay: Cell viability assay, TF1; format: cell-based; conditions: Homo sapiens, TF-1; TF1, acute myeloid leukemia; cell viability, 72 hours
# [23] = tested on: BJAB; assay: Cell viability assay, BJAB; format: cell-based; conditions: Homo sapiens, lymphoma, cell viability, 72 hours
# [24] = tested on: MDSL; assay: cells; conditions: 72 h
# [25] = tested on: Jurkat; assay: Cell viability assay, Jurkat; format: cell-based; conditions: Homo sapiens, acute lymphoblastic leukemia, cell viability, 72 hours
# [26] = tested on: NALM-6; assay: cells; conditions: Homo sapiens, NALM-6, 72 h
# [27] = tested on: K562; assay: Cell viability assay, K562; format: cell-based; conditions: Homo sapiens; K562, chronic myeloid leukemia; cell viability, 72 hours
# [28] = tested on: HEK293T; assay: Cell viability assay, HEK293T (non-cancer cell line); format: cell-based; conditions: Homo sapiens, HEK-293T, non-hematological cell line, cell viability, 72 hours
# [29] = tested on: KMS12PE; assay: Cell viability assay, KMS12PE; format: cell-based; conditions: Homo sapiens, KMS-12-PE, multiple myeloma, cell viability, 72 hours
# [30] = tested on: SKMM2; assay: Cell viability assay, SKMM2; format: cell-based; conditions: Homo sapiens, SK-MM-2; SKMM2, multiple myeloma; cell viability, 72 hours
# [31] = tested on: RIVA; assay: Cell viability assay, RIVA; format: cell-based; conditions: lymphoma, cell viability, 72 hours
# [32] = tested on: OCI-AML3; assay: Cell viability assay, OCI-AML3; format: cell-based; conditions: Homo sapiens, OCI-AML-3; OCI-AML3, acute myeloid leukemia; cell viability, 72 hours
# [33] = tested on: HL-60; assay: Cell viability assay, HL-60; format: cell-based; conditions: Homo sapiens; HL-60, acute myeloid leukemia; cell viability, 72 hours
compound,measurement,setting,value
CC(C)NC(=O)c1ccc(Nc2nccc(-c3ccc4nc(N5CCCC5)ncc4c3)n2)cc1 [Example 7],IC50,[1],0.769 µM
same,IC50,[2],8.1 µM
same,IC50,[3],> 100 µM
same,IC50,[4],0.182 µM
same,IC50,[5],16.1 µM
same,IC50,[6],3.71 µM
same,IC50,[7],0.908 µM
same,IC50,[8],> 100 µM
same,IC50,[9],< 0.05 µM
same,IC50,[10],31.6 µM
same,IC50,[11],3.6 µM
same,IC50,[12],0.924 µM
same,IC50,[13],8.37 µM
same,IC50,[14],2.47 µM
same,IC50,[15],23.1 µM
same,IC50,[16],8.96 µM
same,IC50,[17],16.9 µM
same,IC50,[18],0.05 to 0.1 µM
same,IC50,[19],> 100 µM
same,IC50,[20],3.69 µM
same,IC50,[21],20 µM
same,IC50,[22],> 100 µM
same,IC50,[23],> 100 µM
same,IC50,[24],> 100 µM
same,IC50,[25],25.7 µM
same,IC50,[26],5.5 µM
same,IC50,[27],4.79 µM
same,IC50,[28],> 100 µM
same,IC50,[29],> 100 µM
same,IC50,[30],> 100 µM
same,IC50,[31],> 100 µM
same,IC50,[32],> 100 µM
same,IC50,[33],> 100 µM
